Data set [1] is described as follows: 24 hour release of everolimus and pimecrolimus from dual-coated stent in porcine serum. The class given is physicochemical. The settings on record: EVAL-based dual-coated 12 mm Vision stent. On the procedure:
Using the method set forth in Example 1, a 12 mm Vision™ stent was similarly coated with everolimus and pimecrolimus. The 24 hour release of everolimus and pimecrolimus in porcine serum was then measured using methods known in the art. […] For pimecrolimus, 12.4 μg of an expected 60.6 μg of pimecrolimus was released over 24 hours resulting in 20.5% release.

Data set [2] is described as follows: in vivo release from PVDF-HFP-based coated stent implanted in a pig. The note with it: PVDF-HFP matrix stent implanted in a pig, day 7. Here is the method: A 12 mm Vision™ stent was cleaned in a bath of isopropyl alcohol and treated in a plasma cleaner to strip the top layer of molecules from the stent for better coat adhesion. The stent was then spray-coated with a primer solution consisting of 2% PBMA. The coated stent was dried in a convection oven at 80° C. for 0.5 hours.
The stent was then spray-coated with a drug reservoir solution consisting of PVDF-HFP, pimecrolimus and everolimus. A drug:polymer ratio of 1:3.5 of both pimecrolimus and everolimus to PVDF-HFP was used to coat the stent in order to obtain 64 μg of pimecrolimus and 64 μg of everolimus in the final coating. Spray coating parameters and the solvent were identical to those used for coating with the primer layer.
The stent was implanted in a pig and 1, 3 and 7 day release rates were obtained and compared with 24 hour release rates in porcine serum. […] By day 7, release of both drugs was 30%.

For the molecule `CC[C@@H]1/C=C(\C)C[C@H](C)C[C@H](OC)[C@H]2O[C@@](O)(C(=O)C(=O)N3CCCC[C@H]3C(=O)O[C@H](/C(C)=C/[C@@H]3CC[C@H](Cl)[C@H](OC)C3)[C@H](C)[C@@H](O)CC1=O)[C@H](C)C[C@@H]2OC` [pimecrolimus], in data set [1], the “% release over 24 hours” value is recorded as 20.5% and the “amount released over 24 hours” value was determined as 12.4 µg. For the same molecule, the “in vivo percent release” value in data set [2] worked out at 30%.

Turning to `CO[C@H]1C[C@@H]2CC[C@@H](C)[C@@](O)(O2)C(=O)C(=O)N2CCCC[C@H]2C(=O)O[C@H]([C@H](C)C[C@@H]2CC[C@@H](OCCO)[C@H](OC)C2)CC(=O)[C@H](C)/C=C(\C)[C@@H](O)[C@@H](OC)C(=O)[C@H](C)C[C@H](C)/C=C/C=C/C=C/1C` [everolimus], in data set [1], the “% release over 24 hours” value came to 19.7% and the “amount released over 24 hours” value came to 12.2 µg. Besides, the “in vivo percent release” value in data set [2] came out at 30%.

For the origin of these results see patent US20080004695A1, “EVEROLIMUS/PIMECROLIMUS-ELUTING IMPLANTABLE MEDICAL DEVICES” (Abbott Cardiovascular Systems Inc., priority 2006, published 2008).
